Measured values published in ChEMBL document CHEMBL3351527, “Multitarget drug design strategy: quinone-tacrine hybrids designed to block amyloid-β aggregation and to exert anticholinesterase and antioxidant effects” (J Med Chem, 2014).
pIC50: −log10 of the molar value. Calls of active or inactive are those of the source. The rule behind the calls is not given here.

Experiments:
[1] = Cytotoxicity against mouse Neuro2a cells assessed as reduction in cell viability after 24 hrs by MTT assay; assay type: cell-based; settings: n2a
[2] = Cytotoxicity against rat CGN cells assessed as reduction in cell viability after 24 hrs by MTT assay; assay type: cell-based
Acetylcholinesterase = Acetylcholinesterase (Homo sapiens, UniProt P22303)
Description: Inhibition of human recombinant AChE after 5 mins by Ellman method

Cholinesterase = Cholinesterase (Homo sapiens, UniProt P06276)
Description: Inhibition of human plasmatic BChE after 5 mins by Ellman method

[3] = Cytotoxicity against mouse Neuro2a cells assessed as cell viability at 12.5 uM after 24 hrs by MTT assay relative to control; assay type: cell-based, N2a; settings: read-out: Activity
[4] = Cytotoxicity against rat CGN cells assessed as cell viability at 12.5 uM after 24 hrs by MTT assay relative to control; assay type: cell-based; settings: read-out: Activity
N2a = assay: Neuroprotective effect in amyloid beta-stimulated mouse Neuro2a cells assessed as increase in cell viability at 12.5 uM after 24 hrs by MTT assay; assay type: functional, cell-based
T67 [5] = assay: Antioxidant activity in tert-butyl hydroperoxide-stimulated human T67 cells assessed as reduction in intracellular ROS production at 10 uM after 24 hrs by spectrophotometry; assay type: functional, cell-based
T67 [6] = assay: Antioxidant activity in tert-butyl hydroperoxide-stimulated human T67 cells assessed as reduction in intracellular ROS production at 10 uM after 24 hrs by spectrophotometry in presence of sulforaphane; assay type: functional, cell-based
Rattus norvegicus [7] = assay: Ex vivo inhibition of AChE in ip dosed Wistar rat telencephalon measured 1 hr post dose by colorimetric method; assay type: functional, organism-based
Rattus norvegicus [8] = assay: Ex vivo inhibition of AChE in Wistar rat cerebellum at 10 or 50 umol/kg, ip measured 1 hr post dose by colorimetric method; assay type: functional, organism-based
HepG2 = assay: Hepatotoxicity in human HepG2 cells assessed as reduction in cell viability at 12.5 to 50 uM after 24 hrs by MTT assay; assay type: toxicity, cell-based; settings: hepg2, 24 h

Sequence of Cholinesterase (P06276 whole entry): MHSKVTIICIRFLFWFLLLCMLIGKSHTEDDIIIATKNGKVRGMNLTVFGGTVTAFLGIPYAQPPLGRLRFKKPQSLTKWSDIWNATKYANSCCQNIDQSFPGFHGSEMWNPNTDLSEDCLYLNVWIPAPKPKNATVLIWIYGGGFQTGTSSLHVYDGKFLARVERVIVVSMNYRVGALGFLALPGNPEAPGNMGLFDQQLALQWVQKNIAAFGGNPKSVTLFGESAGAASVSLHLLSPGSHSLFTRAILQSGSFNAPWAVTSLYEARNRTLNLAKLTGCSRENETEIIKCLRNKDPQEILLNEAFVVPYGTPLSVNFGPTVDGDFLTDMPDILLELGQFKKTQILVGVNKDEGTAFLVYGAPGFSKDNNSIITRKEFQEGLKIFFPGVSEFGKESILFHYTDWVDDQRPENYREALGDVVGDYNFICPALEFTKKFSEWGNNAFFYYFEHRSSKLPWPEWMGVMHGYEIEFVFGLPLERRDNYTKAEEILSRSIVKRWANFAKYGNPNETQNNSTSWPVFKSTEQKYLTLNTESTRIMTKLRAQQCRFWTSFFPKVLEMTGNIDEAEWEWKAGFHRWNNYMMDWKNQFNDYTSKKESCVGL
Sequence of Acetylcholinesterase (P22303 whole entry): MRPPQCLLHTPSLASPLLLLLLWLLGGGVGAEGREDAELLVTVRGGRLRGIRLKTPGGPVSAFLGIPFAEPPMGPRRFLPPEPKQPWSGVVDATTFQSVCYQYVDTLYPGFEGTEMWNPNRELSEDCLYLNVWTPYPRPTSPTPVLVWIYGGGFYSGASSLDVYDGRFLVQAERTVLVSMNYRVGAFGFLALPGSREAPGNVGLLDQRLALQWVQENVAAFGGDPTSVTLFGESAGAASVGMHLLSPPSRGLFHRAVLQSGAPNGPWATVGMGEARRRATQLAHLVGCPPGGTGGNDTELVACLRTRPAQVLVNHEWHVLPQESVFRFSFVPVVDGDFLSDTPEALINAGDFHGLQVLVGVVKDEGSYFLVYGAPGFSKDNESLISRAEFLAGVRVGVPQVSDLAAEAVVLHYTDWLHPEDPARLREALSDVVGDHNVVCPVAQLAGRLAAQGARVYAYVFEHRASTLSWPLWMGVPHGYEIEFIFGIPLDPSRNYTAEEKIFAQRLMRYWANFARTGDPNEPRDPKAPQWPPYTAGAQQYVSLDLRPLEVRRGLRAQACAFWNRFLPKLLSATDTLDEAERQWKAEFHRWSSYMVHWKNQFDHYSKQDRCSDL

SMILES	Activity [1]	Activity [2]	pIC50 (Acetylcholinesterase)	pIC50 (Cholinesterase)	viability at 24 h, 12.5 µM [3]	viability at 24 h, 12.5 µM [4]	Activity (N2a)	Activity (T67 [5])	Activity (T67 [6])	inhibition (Rattus norvegicus [7])	inhibition (Rattus norvegicus [8])	Activity (HepG2)
COc1ccc2nc3c(c(NCCCNC4=CC(=O)c5ccccc5C4=O)c2c1)CCCC3	Non-toxic	Toxic	5.21	6.20								
COc1ccc2nc3c(c(NCCNC4=C(Cl)C(=O)c5ccccc5C4=O)c2c1)CCCC3	Toxic	Toxic	5.86	6.01								
O=C1C=C(NCCCNc2c3c(nc4cc(Cl)ccc24)CCCC3)C(=O)c2ccccc21	Non-toxic	Toxic	8.27	6.71								
COc1ccc2nc3c(c(NCCCNC4=CC(=O)c5c(O)cccc5C4=O)c2c1)CCCC3	Toxic	Toxic	6.46	6.48								
O=C1C(Cl)=C(NCCCNc2c3c(nc4cc(Cl)ccc24)CCCC3)C(=O)c2ccccc21	Toxic	Toxic	8.05	6.63								
O=C1C=C(NCCNc2c3c(nc4ccccc24)CCCC3)C(=O)c2ccccc21	Non-toxic	Toxic	7.84	8.26								
O=C1C(NCCCNc2c3c(nc4cc(Cl)ccc24)CCCC3)=CC(=O)c2c(O)cccc21	Toxic	Toxic	8.03	6.59								
O=C1C(NCCCNc2c3c(nc4ccccc24)CCCC3)=CC(=O)c2c(O)cccc21	Toxic	Toxic	6.99	7.84								
O=C1C(NCCNc2c3c(nc4ccccc24)CCCC3)=CC(=O)c2c(O)cccc21	Toxic	Toxic	7.61	7.38								
COc1ccc2nc3c(c(NCCNC4=CC(=O)c5ccccc5C4=O)c2c1)CCCC3	Toxic	Toxic	5.60	6.30								
O=C1C=C(NCCNc2c3c(nc4cc(Cl)ccc24)CCCC3)C(=O)c2ccccc21	Non-toxic	Toxic	8.71	6.59	105%	75%	Active	inactive	Active	Dose-dependent effect	inactive	Non-toxic
O=C1C(Cl)=C(NCCCNc2c3c(nc4ccccc24)CCCC3)C(=O)c2ccccc21	Toxic	Toxic	7.42	7.32								
O=C1C=C(NCCCNc2c3c(nc4ccccc24)CCCC3)C(=O)c2ccccc21	Non-toxic	Toxic	7.27	7.72								
COc1ccc2nc3c(c(NCCNC4=CC(=O)c5c(O)cccc5C4=O)c2c1)CCCC3	Toxic	Toxic	6.19	5.89								
COc1ccc2nc3c(c(NCCCNC4=C(Cl)C(=O)c5ccccc5C4=O)c2c1)CCCC3	Toxic	Toxic	6.09	6.13								
O=C1C(Cl)=C(NCCNc2c3c(nc4cc(Cl)ccc24)CCCC3)C(=O)c2ccccc21	Toxic	Toxic	8.49	6.54								
O=C1C(Cl)=C(NCCNc2c3c(nc4ccccc24)CCCC3)C(=O)c2ccccc21	Toxic	Toxic	7.02	7.02								
O=C1C(NCCNc2c3c(nc4cc(Cl)ccc24)CCCC3)=CC(=O)c2c(O)cccc21	Toxic	Toxic	9.14	6.27	85.6%	73.5%	Active	inactive	Active	Dose-dependent effect	inactive	
